In article PMC9287337 (Scientific Reports, 2022):
Like-named read-outs stand apart in the source and are kept apart here.

Columns and labels:
[1] = RealTime-Glo MT cell viability assay; assay type: cell-based, mouse; conditions: mouse, serum-starved C2C12 cells, 24 h, serum-starved C2C12, read-out: Cell viability, percent of luminescence in control untreated cells
Experimental: (§1) To first determine how these novel compounds effect the health of C2C12 cells and to establish the range of subtoxic concentrations for future studies, cell viability assays were carried out. Serum-starved C2C12 cells were exposed to increasing concentrations (0.01–1000 µM) of SY-LB-35 and SY-LB-57 for 24 h. Exposure to Triton X-100 (125 µM) is toxic to cells and was used as a negative control for cell viability. Following the 24-h exposure period, the MT Cell viability substrate was added to the cultures. Only viable cells can reduce the substrate and, thereby, generate a luminescent signal. Any decrease in luminescence was considered an indication of cell death or toxicity.
(§2) C2C12 cells (100 µL) were seeded in a 96-well plate at 5 × 10^5 cells/mL and incubated overnight in complete growth media to achieve 80% confluency followed by serum-starvation for 16–18 h.
(§3) Next, reagents from the RealTime-Glo™ MT Cell Viability Assay Kit (Promega, Madison, WI, USA) were diluted in SS medium and used according to manufacturer’s protocol. Cellular luminescence was measured using the FilterMax F5 Multi-mode Microplate Reader (Molecular Devices, San Jose, CA, USA). Data from three independent experiments with individual experiments carried out in triplicate was determined and reported as a percentage of control.

[2] = test system: C2C12 cells; test: RealTime-Glo MT cell viability assay; assay type: cell-based, mouse; conditions: for Increase in cell viability over control / Decrease in cell viability compared with control: 24 h; for IC50: non-linear regression, read-out: IC50 (concentration at which cell viability is reduced by 50%)
Experimental: as §1, §2, §3

[3] = test system: p-Smad1/5/8 (Smad phosphorylation); test: Western blot of p-Smad normalized to total Smad; assay type: cell-based; conditions: Mus musculus, 0.5 h, 30 min, read-out: p-Smad level, percent of control
Experimental: To investigate whether the new indolyl-benzimidazole compounds activate BMP receptor-dependent signaling pathways, the levels of p-Smad in serum-starved C2C12 cells, treated for 30 min with SY-LB-35 and SY-LB-57, were assessed by Western blot analysis. Whole cell lysates of treated C2C12 cells were probed for p-Smad using phospho-specific anti-Smad antibodies. p-Smad levels were normalized against total Smad levels.
(§4) C2C12 cells (3 mL) were seeded into 35 mm dishes at 7.5 × 10^4 cells/mL in complete growth medium, incubated to reach 80% confluence and serum-starved for 16–18 h. […] Thereafter, the cultures were washed with ice-cold 1X TBS for 2 min. Lysis Buffer (Cell Signaling Technology, Danvers, MA, USA) supplemented with 1 mM PMSF (phenylmethylsulphonyl fluoride) was added to the cultures and whole cell lysates were prepared.
(§5) Laemmli sample buffer (4X) was added to the whole cell lysates (20 µg) to a final concentration of 1X and heated at 100 °C for 5 min. The samples were immediately cooled on ice for 5 min and centrifuged at 9500 rpm for 2 min at RT. The samples and the Precision Plus Protein Standard (5 µL; Bio-Rad, Hercules, CA, USA) were loaded on 12% SDS polyacrylamide gels. Protein was separated using the Bio-Rad Mini Protean II Gel Electrophoresis System at 135 V. Meanwhile, 0.2 µm nitrocellulose membranes were pre-incubated in cold 1X Transfer Buffer (10 mM Tris/2.5 mM glycine/20% methanol) for at least 30 min. Next, the separated proteins were transferred at 100 V onto the pre-equilibrated nitrocellulose membranes for 1 h in Transfer Buffer, followed by blocking in 5% BSA/0.1% Tween 20/1X TBS for 30 min. The membranes were incubated overnight at 4 °C with the desired primary rabbit monoclonal antibody (p-Smad1/5(S463/465)/9(S465/467), Smad1 (D5907) XP®, p-Akt (Ser473) (D9E) XP®, or Akt (pan) (C67E7), p-SAPK/JNK (Thr183/Tyr185), SAPK/JNK, β-actin (Cell Signaling Technologies, Danvers, MA, USA)) or rabbit polyclonal antibody (phospho-PI3 Kinase p85 (Tyr458)/p55 (Tyr199) antibody (Cell Signaling Technologies, Danvers, MA, USA), p-p38 MAPK, p38 MAPK, p-ERK1, ERK1/2) (Abclonal, Woburn, MA, USA)) in Antibody Dilution Buffer (1% BSA/0.1% Tween 20/1X TBS) and then washed with 1X TBST (0.1% Tween 20/1X TBS) three times for 15 min. HRP-conjugated Goat Anti-Rabbit IgG secondary antibody (Santa Cruz Biotechnology, Inc., Dallas, TX, USA) in Antibody Dilution Buffer was added to the membranes for 1 h at RT followed by three 15-min washes with 1X TBST. Finally, the blots were developed using SuperSignal ™ West Femto HRP Substrate solutions (Thermo Scientific, Rockford, IL, USA) and analysed using the Omega Lum™ G Imaging System (San Francisco, CA, USA). Quantification of chemiluminescent signals was carried out using ImageJ (Image Processing and Analysis in Java 1.8.0_112).

[4] = test system: p-Akt (Akt phosphorylation); test: Western blot of p-Akt normalized to total Akt; assay type: cell-based; conditions: Mus musculus, 0.25 h, 15 min, read-out: p-Akt level, percent of control
Experimental: To ascertain whether these novel indolyl-benzimidazole compounds can also activate non-canonical BMP-related pathways, stimulation of the PI3K/Akt pathway was assessed by first monitoring changes in the level of p-Akt in response to SY-LB-35 and SY-LB-57.
as §4, §5

[5] = test system: p-PI3K (PI3K phosphorylation); test: Western blot of p-PI3K normalized to β-actin; assay type: cell-based, mouse; conditions: 15 min; for activity at 0.01 µM / activity at 0.1 µM / activity at 1 µM / activity at 10 µM: Mus musculus, 0.25 h, read-out: p-PI3K level, percent of control; for Increase in level of PI3K phosphorylation: all concentrations tested 0.01–10 µM
Experimental: To directly assess the activation of the PI3K enzyme, Western blot analysis was carried out on C2C12 cell whole cell lysates after a 15-min stimulation with 0.01–10 µM SY-LB-35 or SY-LB-57.
as §4, §5

[6] = test system: p-ERK; test: Western blot of p-ERK; assay type: cell-based, mouse; conditions: 0.01–10 µM, 15 min
Experimental: (§6) Whole cell lysates were prepared from the treated cultures for Western blot analysis.
as §4
(§7) Laemmli sample buffer (4X) was added to the whole cell lysates (20 µg) to a final concentration of 1X and heated at 100 °C for 5 min. The samples were immediately cooled on ice for 5 min and centrifuged at 9500 rpm for 2 min at RT. The samples and the Precision Plus Protein Standard (5 µL; Bio-Rad, Hercules, CA, USA) were loaded on 12% SDS polyacrylamide gels. […] Finally, the blots were developed using SuperSignal ™ West Femto HRP Substrate solutions (Thermo Scientific, Rockford, IL, USA) and analysed using the Omega Lum™ G Imaging System (San Francisco, CA, USA). Quantification of chemiluminescent signals was carried out using ImageJ (Image Processing and Analysis in Java 1.8.0_112).

[7] = test system: p-p38; test: Western blot of p-p38; assay type: cell-based, mouse; conditions: 0.01–10 µM, 15 min
Experimental: as §6, §4, §7

SMILES | viability at 24 h, 0.01 µM [1] [%] | viability at 24 h, 0.1 µM [1] [%] | viability at 24 h, 1 µM [1] [%] | viability at 24 h, 10 µM [1] [%] | viability at 24 h, 100 µM [1] [%] | viability at 24 h, 1 mM [1] [%] | IC50 ([2]; C2C12, 24 h) [µM] | IC50 ([2]; Mus musculus, C2C12, 24 h) [µM] | activity at 0.01 µM [3] [%] | activity at 0.1 µM [3] [%] | activity at 1 µM [3] [%] | activity at 10 µM [3] [%] | activity at 0.01 µM [4] [%] | activity at 10 µM [4] [%] | activity at 0.01 µM [5] [%] | activity at 0.1 µM [5] [%] | activity at 1 µM [5] [%] | activity at 10 µM [5] [%] | Increase in level of PI3K phosphorylation [5] [% increase] | p-ERK level [6] | other results
Oc1ccc2[nH]c(-c3nc4ccccc4[nH]3)cc2c1 [SY-LB-35] | 241 | 244 | 218 | 137 | 69 | 13 | 401 | 401 | 150 | 170 | 282 | 188 | 945 | 766 | 431 | 434 | 492 | 484 | > 300 | stimulated increases | Increase in cell viability over control ([2]; 0.01 µM): 150 % over control; Increase in cell viability over control ([2]; 0.1 µM): 150 % over control; Increase in cell viability over control ([2]; 1 µM): 120 % over control; Decrease in cell viability compared with control ([2]; 100 µM): 30 % decrease; Decrease in cell viability compared with control ([2]; 1 mM): 80 % decrease; activity at 0.1 µM ([4]; 0.1 µM): 826%; activity at 1 µM ([4]; 1 µM): 887%; p-p38 level [7]: stimulated increases
COc1ccc2[nH]c(-c3nc4ccccc4[nH]3)cc2c1 [SY-LB-57] | 390 | 394 | 301 | 251 | 151 | 20 | 808 | 808 | 234 | 316 | 276 | 357 | 827 | 995 | 443 | 404 | 471 | 451 | > 300 | stimulated increases | Non-toxic / safe concentrations ([2]; C2C12, 24 h): ≤ 10 µM; p-p38 level [7]: stimulated increases
